Data from patent US20260297042A1, “BIARYLAMIDE DERIVATIVES AND THEIR USE AS PKMYT1 INHIBITORS” (CANCER RESEARCH TECHNOLOGY LIMITED, priority 2023, published 2026).
pIC50: −log10 of the molar value.

Tests used:
[1] = system: h-TERT-RPE1 TP53−/− parental cells; assay: Nuclear count cell proliferation assay, parental (wild type) h-TERT-RPE1 TP53−/− cells; format: cell-based; conditions: hTERT-RPE1, h-TERT-RPE1 TP53−/− parental (Wt), around 6 population doublings, banded, read-out: RPE Wt GI50
Method: (§1) h-TERT-RPE1 TP53−/− and CCNE1 high expressing clones (clone cell lines 7 and 15) were treated with test compounds dissolved in DMSO at serially diluted concentrations alongside a DMSO only control for around 6 population doublings time. Cells were then fixed with 4% Paraformaldehyde and the cell nuclei were stained with DAPI (Sigma D9542). Images covering each well were acquired by an Opera Phenix® High-Content Screening System (PerkinElmer). Image analysis was performed using Harmony® high-content analysis software (PerkinElmer). Data analysis was performed using Microsoft Excel® and GI50 estimates generated with GraphPad Prism v9. Percent nuclear count was compared to vehicle control wells and used to measure inhibition of proliferation.

Human PKMYT1 = target: T1, Human PKMYT1 (Homo sapiens, UniProt Q99640); assay: PKMYT1 biochemical ADP-Glo enzymatic assay; conditions: ADP-Glo
T1 construct: Human PKMYT1 75-362 was cloned as a TEV cleavable 6xHis fusion; 6xHis (TEV cleavable) (cleaved yes); made in house; host or cells: bacterial cells
T1 sequence (Q99640 75-362): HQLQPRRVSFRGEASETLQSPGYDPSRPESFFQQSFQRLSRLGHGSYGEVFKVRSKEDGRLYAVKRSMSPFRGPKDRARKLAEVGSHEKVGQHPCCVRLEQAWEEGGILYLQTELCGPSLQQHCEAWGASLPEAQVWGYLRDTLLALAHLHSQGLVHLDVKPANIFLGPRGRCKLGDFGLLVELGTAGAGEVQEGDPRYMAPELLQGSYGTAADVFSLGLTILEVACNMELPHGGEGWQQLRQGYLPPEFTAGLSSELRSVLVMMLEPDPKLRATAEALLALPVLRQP
Summary of the method: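 IC50 values come from 10-point 3-fold series, with replicates required within 3-fold and r2 >0.9. ADP formed by PKMYT1 intrinsic ATPase (500 uM ATP, 60 min, 26° C.) was quantified by ADP-Glo luminescence. The enzyme was the TEV-cleaved kinase domain 75-362 at 15 nM, in HEPES pH 7.5 buffer.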

WEE1 = target: T2, WEE1 (Homo sapiens, UniProt P30291); assay: Selectivity versus WEE1 assay (ADP-Glo enzymatic assay); format: biochemical; conditions: for pIC50: ADP-Glo; for PKMYT1 vs. WEE1 selectivity: fold difference in selectivity for PKMYT1 over WEE1
T2 construct: purchased Thermo Fisher PR7373A
Summary of the method: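 ADP-Glo luminescent read-out after a 60-min, 26 °C kinase reaction of 15 nM WEE1 with 30 µM ATP, in HEPES pH 7.5 buffer containing MgCl2, EGTA, Brij-35 and 1% DMSO. IC50 accepted only when replicate values agree within 3-fold and curve fit r2 exceeds 0.9.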

[2] = system: h-TERT-RPE1 TP53−/− CCNE1 high expressing clone cell line 7 (CL7); assay: Nuclear count cell proliferation assay, CCNE1 high expressing clone cell line 7 (CL7) of h-TERT-RPE1 TP53−/−; format: cell-based; conditions: banded; for Selectivity Ratio Wt vs. CL7: GI50 ratio RPE Wt vs. CL7, >N = at least in this band; for GI50: hTERT-RPE1, h-TERT-RPE1 TP53−/− CCNE1 high clone CL7, nuclear count, around 6 population doublings, read-out: RPE CL7 GI50
Method: as §1

[3] = system: h-TERT-RPE1 TP53−/− CCNE1 high expressing clone cell line 15 (CL15); assay: Nuclear count cell proliferation assay, CCNE1 high expressing clone cell line 15 (CL15) of h-TERT-RPE1 TP53−/−; format: cell-based; conditions: banded; for Selectivity Ratio Wt vs. CL15: GI50 ratio RPE Wt vs. CL15, >N = at least in this band; for GI50: h-TERT-RPE1 TP53−/− CCNE1 high clone CL15, nuclear count, around 6 population doublings, read-out: RPE CL15 GI50
Method: as §1

[4] = target: T3, Cellular PKMYT1 Biomarker CDK1 pT14 (Homo sapiens, UniProt Q99640); assay: Inhibition of cellular PKMYT1 biomarker CDK1 pT14 in OVCAR 3 cells (immunoblot); format: cell-based; conditions: 20 hours incubation
T3 construct: read-out CDK1 phospho-T14 immunoblot
T3 sequence (Q99640 1-499): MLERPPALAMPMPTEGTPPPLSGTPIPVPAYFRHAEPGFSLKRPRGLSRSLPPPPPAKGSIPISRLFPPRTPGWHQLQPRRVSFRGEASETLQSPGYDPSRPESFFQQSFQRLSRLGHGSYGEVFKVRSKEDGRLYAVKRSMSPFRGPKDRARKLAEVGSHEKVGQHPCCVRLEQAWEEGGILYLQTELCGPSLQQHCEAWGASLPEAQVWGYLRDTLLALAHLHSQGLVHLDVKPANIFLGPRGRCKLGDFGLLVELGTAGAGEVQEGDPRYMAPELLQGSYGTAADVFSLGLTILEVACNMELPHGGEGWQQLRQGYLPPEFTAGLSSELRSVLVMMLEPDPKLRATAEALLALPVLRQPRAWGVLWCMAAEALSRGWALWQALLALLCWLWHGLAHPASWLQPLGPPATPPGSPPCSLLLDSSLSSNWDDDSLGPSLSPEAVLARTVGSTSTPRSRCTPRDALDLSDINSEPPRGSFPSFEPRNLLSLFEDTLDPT
Summary of the method: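 Confluent OVCAR 3 cells treated with a compound concentration range for 20 h at 37 °C. Lysates analysed by automated capillary immunoblot for CDK1 phospho-T14, with vinculin, fluorescence detection; IC50 by regression.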

KYSE-30 cells = assay: Cancer cell line proliferation assay, ATP-based cell viability (Cell Titre Glow), KYSE-30 (normal CCNE1); conditions: Homo sapiens, KYSE-30 cells (normal CCNE1), concentration that achieves 50% cell growth proliferation inhibition, read-out: KYSE30 Gl50
Summary of the method: (§2)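 GI50 values, the concentrations halving cell growth, were derived from ATP-based luminescence (Cell Titre Glo) after PKMYT1 inhibitor exposure. Cells tested were OVCAR 3, an ovarian line with amplified CCNE1, and KYSE-30, which has normal CCNE1.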

OVCAR 3 cells = assay: Cancer cell line proliferation assay, ATP-based cell viability (Cell Titre Glow), OVCAR 3 (CCNE1-amplified); conditions: KYSE30 (normal CCNE1) GI50 vs. OVCAR 3 (CCNE1-amplified) GI50
Summary of the method: as §2

[5] = 15 nM PKMYT1 kinase domain, 500 µM ATP, 60 minutes at 26° C., banded
[6] = 15 nM WEE1, 60 minutes at 26° C., banded
[7] = banded, ">N" = at least in this band but could be higher
[8] = PKMYT1 kinase domain 15 nM, banded values

T2 sequence (P30291 whole entry): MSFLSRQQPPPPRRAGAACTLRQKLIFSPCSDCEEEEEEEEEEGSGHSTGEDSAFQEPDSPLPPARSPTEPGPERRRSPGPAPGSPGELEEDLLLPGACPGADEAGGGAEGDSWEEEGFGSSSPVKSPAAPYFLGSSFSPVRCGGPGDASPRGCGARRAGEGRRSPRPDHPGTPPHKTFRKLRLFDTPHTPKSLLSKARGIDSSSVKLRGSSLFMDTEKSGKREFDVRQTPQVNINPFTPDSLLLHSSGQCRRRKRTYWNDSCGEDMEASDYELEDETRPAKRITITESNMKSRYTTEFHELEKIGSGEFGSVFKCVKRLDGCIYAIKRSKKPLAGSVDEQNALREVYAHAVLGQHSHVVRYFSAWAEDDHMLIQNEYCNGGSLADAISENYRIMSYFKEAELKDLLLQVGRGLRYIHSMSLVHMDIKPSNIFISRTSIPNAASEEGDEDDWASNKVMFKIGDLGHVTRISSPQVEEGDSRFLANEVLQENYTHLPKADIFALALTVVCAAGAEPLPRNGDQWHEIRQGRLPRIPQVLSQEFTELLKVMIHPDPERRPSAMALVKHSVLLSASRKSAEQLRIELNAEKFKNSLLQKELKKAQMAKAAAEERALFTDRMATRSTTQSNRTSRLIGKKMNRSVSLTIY

Structure (SMILES)	pIC50 (Human PKMYT1; [5])	pIC50 (WEE1; [6])	PKMYT1 vs. WEE1 selectivity (WEE1; [7])	pIC50 [4]	pIC50 (Human PKMYT1; [8])	pIC50 (WEE1; WEE1 15 nM, banded values)	PKMYT1 vs. WEE1 selectivity (WEE1; banded)	GI50 [1] [µM]	Selectivity Ratio Wt vs. CL7 [2]	GI50 [2] [µM]	Selectivity Ratio Wt vs. CL15 [3]	GI50 [3] [µM]	GI50 (KYSE-30 cells) [µM]	Selectivity ratio KYSE30 Gl50 vs. OVCAR3 Gl50 (OVCAR 3 cells)
Cc1ccc(O)c(C)c1NC(=O)c1cnc(Nc2ccn([C@@H]3CCN(Cc4ccccc4)C3)n2)s1 [BAA-113, 2-[[1-[(3R)-1-Benzylpyrrolidin-3-yl]pyrazol-3-yl]amino]-N-(3-hydroxy-2,6-dimethyl-phenyl)thiazole-5-carboxamide]	6.00 to 7.30	< 4.96	>X (100-<1000 fold)	–	–	–	–	3 to 10	Y (10-30 fold)	0.5 to 3	–	–	–	–
Cc1ccc(O)c(C)c1NC(=O)c1cnc(NC2CC2)s1 [BAA-061, 2-(cyclopropylamino)-N-(3-hydroxy-2,6-dimethyl-phenyl)thiazole-5-carboxamide]	6.00 to 7.30	< 4.96	X (100-<1000 fold)	–	–	–	–	3 to 10	–	–	X (3-<10 fold)	0.5 to 3	–	–
Cc1ccc(O)c(C)c1NC(=O)c1cnc(Nc2ccn(CC(=O)NCCN(C)C)n2)s1 [BAA-160]	6.00 to 7.30	< 4.96	X (100-<1000 fold)	–	–	–	–	3 to 10	X (3-<10 fold)	0.5 to 3	–	–	–	–
Cc1ccc(O)c(C)c1NC(=O)c1cnc(Nc2ccn(CC(=O)NC3CCNCC3)n2)s1 [BAA-224, N-(3-hydroxy-2,6-dimethylphenyl)-2-((1-(2-oxo-2-(piperidin-4-ylamino)ethyl)-1H-pyrazol-3-yl)amino)thiazole-5-carboxamide]	> 7.30	< 4.96	X (100-<1000 fold)	–	–	–	–	3 to 10	Z (>30 fold)	< 0.5	–	–	–	–
Cc1ccc(O)c(C)c1NC(=O)c1cnc(NCCCNC(=O)OC(C)(C)C)s1 [BAA-071, tert-butyl N-[3-[5-[(3-hydroxy-2,6-dimethyl-phenyl)carbamoyl]thiazol-2-yllamino]propyl]carbamate]	6.00 to 7.30	< 4.96	>X (100-<1000 fold)	–	–	–	–	> 10	X (3-<10 fold)	0.5 to 3	–	–	–	–
Cc1ccc(O)c(C)c1NC(=O)c1cnc(Nc2ccn(CC(=O)N3CCN(CC4CC4)CC3)n2)s1 [BAA-183]	> 7.30	< 4.96	Y (1000-5000 fold)	–	–	–	–	3 to 10	X (3-<10 fold)	< 0.5	–	–	–	–
CCOC(=O)c1cn(C)nc1Nc1ncc(C(=O)Nc2c(C)ccc(O)c2C)s1 [BAA-129, ethyl 3-[[5-[(3-hydroxy-2,6-dimethyl-phenyl)carbamoyl]thiazol-2-yl]amino]-1-methyl-pyrazole-4-carboxylate]	6.00 to 7.30	< 4.96	>Y (1000-5000 fold)	–	–	–	–	> 10	–	–	X (3-<10 fold)	0.5 to 3	–	–
Cc1ccc(O)c(C)c1NC(=O)c1cnc(Nc2cccc(N(C)C)n2)s1 [BAA-417, 2-((6-(dimethylamino)pyridin-2-yl)amino)-N-(3-hydroxy-2,6-dimethylphenyl)thiazole-5-carboxamide]	–	–	–	6.00 to 7.00	> 7.30	< 4.96	X (100-<1000 fold)	–	–	–	–	–	0.5 to 5	Y (>20 fold)
Cc1ccc(F)c(Nc2ncc(C(=O)Nc3c(C)ccc(O)c3C)s2)n1 [BAA-420, 2-((3-fluoro-6-methylpyridin-2-yl)amino)-N-(3-hydroxy-2,6-dimethylphenyl)thiazole-5-carboxamide]	–	–	–	> 7.00	> 7.30	< 4.96	Y (1000-5000 fold)	–	–	–	–	–	0.5 to 5	Y (>20 fold)
Cc1ccc(O)c(C)c1NC(=O)c1cnc(Nc2n[nH]cc2Cl)s1 [BAA-566, 2-((4-chloro-1H-pyrazol-3-yl)amino)-N-(3-hydroxy-2,6-dimethylphenyl)thiazole-5-carboxamide]	–	–	–	> 7.00	> 7.30	4.96 to 6.00	X (100-<1000 fold)	–	–	–	–	–	> 5	Y (>20 fold)

Second part, led by results:

pIC50 (Human PKMYT1; [5])	pIC50 (WEE1; [6])	PKMYT1 vs. WEE1 selectivity (WEE1; [7])	pIC50 [4]	pIC50 (Human PKMYT1; [8])	pIC50 (WEE1; WEE1 15 nM, banded values)	PKMYT1 vs. WEE1 selectivity (WEE1; banded)	Structure (SMILES)	GI50 [1] [µM]	Selectivity Ratio Wt vs. CL7 [2]	GI50 [2] [µM]	Selectivity Ratio Wt vs. CL15 [3]	GI50 [3] [µM]	GI50 (KYSE-30 cells) [µM]	Selectivity ratio KYSE30 Gl50 vs. OVCAR3 Gl50 (OVCAR 3 cells)
> 7.30	< 4.96	Y (1000-5000 fold)	–	–	–	–	Cc1ccc(O)c(C)c1NC(=O)c1cnc(Nc2ccn(CC(=O)N3CCC(C)(C)CC3)n2)s1 [BAA-137]	0.5 to 3	X (3-<10 fold)	0.5 to 3	–	–	–	–
> 7.30	< 4.96	Y (1000-5000 fold)	–	–	–	–	Cc1ccc(O)c(C)c1NC(=O)c1cnc(Nc2ccn(CC(=O)N3CCNC(C)(C)C3)n2)s1 [BAA-229, 2-((1-(2-(3,3-dimethylpiperazin-1-yl)-2-oxoethyl)-1H-pyrazol-3-yl)amino)-N-(3-hydroxy-2,6-dimethylphenyl)thiazole-5-carboxamide]	> 10	X (3-<10 fold)	3 to 10	–	–	–	–
> 7.30	< 4.96	X (100-<1000 fold)	–	–	–	–	Cc1ccc(O)c(C)c1NC(=O)c1cnc(Nc2ccn(CC(=O)N3CC4CCC(C3)N4)n2)s1 [BAA-230, 2-((1-(2-(3,8-diazabicyclo[3.2.1]octan-3-yl)-2-oxoethyl)-1H-pyrazol-3-yl)amino)-N-(3-hydroxy-2,6-dimethylphenyl)thiazole-5-carboxamide]	> 10	X (3-<10 fold)	3 to 10	–	–	–	–
> 7.30	< 4.96	X (100-<1000 fold)	–	–	–	–	Cc1ccc(O)c(C)c1NC(=O)c1cnc(Nc2ccn(CC(=O)OC(C)C)n2)s1 [BAA-209, Isopropyl 2-[3-[[5-[(3-hydroxy-2,6-dimethyl-phenyl)carbamoyl]thiazol-2-yl]amino]pyrazol-1-yl]acetate]	0.5 to 3	>X (3-<10 fold)	< 0.5	–	–	–	–
> 7.30	< 4.96	Y (1000-5000 fold)	–	–	–	–	Cc1ccc(O)c(C)c1NC(=O)c1cnc(Nc2ccn(CC(=O)NC3CC3)n2)s1 [BAA-190]	3 to 10	X (3-<10 fold)	0.5 to 3	–	–	–	–
